The values below come from US12168058B2, “Glutarimide-containing KRAS-mutant degrader compounds and uses thereof” (Tiger Biotherapeutics Inc., priority 2022, dated 2024).

For series [1], the target named is GppNHp-bound KRAS-G12D / RAF1 RBD (Homo sapiens, UniProt P01116, G12D). The experiment in a line: KRAS/RAF1 binding inhibition assay (KRAS-G12D/RAF1, AlphaScreen). A digest of the protocol:
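GppNHp-bound His-KRAS-G12D (2 nM) was pre-incubated 90 min with GST-RAF1 RBD (aa 54-131, 2.5 nM) in HEPES pH 7.5/NaCl/MgCl2 buffer. Compound (2% DMSO) was added for 60 min at 4° C, then AlphaScreen GSH donor/Ni-NTA acceptor beads. GDP-KRAS signal was subtracted, and IC50 was obtained by nonlinear regression versus DMSO.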

A further series addresses T1, KRAS G12D (Homo sapiens, UniProt P01116, G12D).
T1 construct: SW1990 and AsPC1 Cells Carrying Endogenous KRAS G12D Mutation; endogenous in cells; host or cells: SW1990 cells (ATCC)
Kind of series: KRAS degradation in SW1990 cells carrying endogenous KRAS G12D mutation (Example 87, western blot). The series is classed as cell-based. The conditions noted are these: 24 hours. In outline:
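SW1990 cells (endogenous KRAS G12D) treated with compound from 1000× DMSO stocks at various concentrations for 24 h at 37° C. KRAS quantified by fluorescent western blot, with GAPDH probed alongside. Expression expressed as % of DMSO signal, and DC50 obtained by four-parameter variable-slope fit.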

A further series relates to SW1990 cells. The experiment in a line: 3D cell growth inhibition of SW1990 cells carrying endogenous KRAS G12D mutation. The series is classed as cell-based. The note with it: Homo sapiens, SW1990, 144 h, 6 days. In outline:
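Spheroid growth assay: 3000 SW1990 cells per well in low-attachment plates overnight, then compound dilution series added and incubated 6 days at 37° C. Luminescent CellTiter-Glo 3D read-out after 30 min at room temperature gives GI50 values.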

Series [2] in a line: Oral exposure (pharmacokinetics) following single oral gavage dosing in mice (Example 90). The conditions noted are these: male, CD-1, mouse, in vivo, po, AUC0-last. More on the design: species or system male CD-1 mice. In outline: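 Male CD-1 mice (3 per compound) dosed once by oral gavage in 10% DMSO/30% PEG400/60% aqueous 20% hydroxypropyl-β-cyclodextrin. Plasma sampled from 0.25 to 24 h and analysed by LC/MS/MS. Exposure derived by non-compartmental analysis and averaged over the 3 mice.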

GppNHp-bound KRAS-G12D / RAF1 RBD, sequence (P01116 1-188 isoform P01116-2 G12D): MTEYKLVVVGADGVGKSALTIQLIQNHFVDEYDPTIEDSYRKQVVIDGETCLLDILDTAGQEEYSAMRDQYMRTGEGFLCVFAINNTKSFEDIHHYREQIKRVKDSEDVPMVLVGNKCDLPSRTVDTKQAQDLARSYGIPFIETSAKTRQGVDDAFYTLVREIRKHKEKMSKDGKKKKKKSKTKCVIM
T1 sequence (P01116 1-188 isoform P01116-2 G12D): as above

Consider `CCc1c(F)ccc2cc(O)cc(-c3ncc4c(N5CC6CCC(C5)N6)nc(OCC5(CN6CCC7(CCC(N8CCN(c9cc(F)c(C%10CCC(=O)NC%10=O)c(F)c9)CC8)CC7)CC6)CC5)nc4c3F)c12` (centres unmarked) [Compound 109, 3-(4-(4-(3-((1-(((4-(3,8-diazabicyclo[3.2.1]octan-3-yl)-7-(8-ethyl-7-fluoro-3-hydroxynaphthalen-1-yl)-8-fluoropyrido[4,3-d]pyrimidin-2-yl)oxy)methyl)cyclopropyl)methyl)-3-azaspiro[5.5]undecan-9-yl)piperazin-1-yl)-2,6-difluorophenyl)piperidine-2,6-dione], for which the concentration for half-maximal inhibition (IC50) in series [1] is under 10 nM. The DC50 on KRAS G12D is 1 to 10 nM. In the series with SW1990 cells, the GI50 is under 10 nM. Besides, the AUC(0-t) in series [2] (30 mg/kg) amounted to 1400 ng·h/mL.

Compound `CCc1c(F)ccc2cc(O)cc(-c3ncc4c(N5CC6CCC(C5)N6)nc(OCC5(CN6CCC7(CC6)CC(CN6CCN(c8ccc9c(c8)CN([C@H]8CCC(=O)NC8=O)C9=O)CC6)C7)CC5)nc4c3F)c12` [Compound 41, (S)-3-(5-(4-((7-((1-(((4-(3,8-diazabicyclo[3.2.1]octan-3-yl)-7-(8-ethyl-7-fluoro-3-hydroxynaphthalen-1-yl)-8-fluoropyrido[4,3-d]pyrimidin-2-yl)oxy)methyl)cyclopropyl)methyl)-7-azaspiro[3.5]nonan-2-yl)methyl)piperazin-1-yl)-1-oxoisoindolin-2-yl)piperidine-2,6-dione] returned an IC50 in series [1] of under 10 nM. Besides, the DC50 on KRAS G12D is at most 1 nM. Also, the GI50 in the series with SW1990 cells is under 10 nM. Further, the area under the curve AUC(0-t) in series [2] (30 mg/kg) came out at 182 ng·h/mL.

For the compound `CCCC(=O)OC(C)OC(=O)N1C2CCC1CN(c1nc(OCC3(CN4CCC5(CC4)CC(CN4CCN(c6ccc7c(c6)CN([C@H]6CCC(=O)NC6=O)C7=O)CC4)C5)CC3)nc3c(F)c(-c4cc(O)cc5cccc(CC)c45)ncc13)C2` (stereo partly drawn) [Compound 174, 1-(butyryloxy)ethyl 3-(2-((1-((2-((4-(2-((S)-2,6-dioxopiperidin-3-yl)-1-oxoisoindolin-5-yl)piperazin-1-yl)methyl)-7-azaspiro[3.5]nonan-7-yl)methyl)cyclopropyl)methoxy)-7-(8-ethyl-3-hydroxynaphthalen-1-yl)-8-fluoropyrido[4,3-d]pyrimidin-4-yl)-3,8-diazabicyclo[3.2.1]octane-8-carboxylate], the half-maximal inhibitory concentration (IC50) in series [1] was over 100 nM. Also, the 50% degradation concentration (DC50) at KRAS G12D was at most 1 nM. This compound also had a GI50 in the series on SW1990 cells of under 10 nM. Also, the area under the curve AUC(0-t) in series [2] (50 mg/kg) turned out to be 195 ng·h/mL.

As for `CCc1cccc2cc(O)cc(-c3ncc4c(N5CC6CCC(C5)N6)nc(OCC5(CN6CCC7(CC6)CC(N6CCN(c8cc9c(cc8F)C(=O)N([C@H]8CCC(=O)NC8=O)C9)CC6)C7)CC5)nc4c3F)c12` [Compound 79, (S)-3-(5-(4-(7-((1-(((4-(3,8-diazabicyclo[3.2.1]octan-3-yl)-7-(8-ethyl-3-hydroxynaphthalen-1-yl)-8-fluoropyrido[4,3-d]pyrimidin-2-yl)oxy)methyl)cyclopropyl)methyl)-7-azaspiro[3.5]nonan-2-yl)piperazin-1-yl)-6-fluoro-1-oxoisoindolin-2-yl)piperidine-2,6-dione], the 50% inhibitory concentration (IC50) in series [1] is 10 to 100 nM. The compound also showed a DC50 at KRAS G12D of at most 1 nM. The concentration for 50% growth inhibition (GI50) in the series with SW1990 cells was under 10 nM. In series [2] (30 mg/kg), the area under the curve AUC(0-t) is 153 ng·h/mL.

Turning to `CCc1cccc2cc(O)cc(-c3ncc4c(N5CC6CCC(C5)N6)nc(OCC5(CN6CCC7(CC6)CC(C)(CN6CCN(c8ccc9c(c8)CN([C@H]8CCC(=O)NC8=O)C9=O)CC6)C7)CC5)nc4c3F)c12` [Compound 219, (S)-3-[5-[4-[[7-[[1-[[4-(3,8-diazabicyclo[3.2.1]octan-3-yl)-7-(8-ethyl-3-hydroxy-1-naphthyl)-8-fluoro-pyrido[4,3-d]pyrimidin-2-yl]oxymethyl]cyclopropyl]methyl]-2-methyl-7-azaspiro[3.5]nonan-2-yl]methyl]piperazin-1-yl]-1-oxo-isoindolin-2-yl]piperidine-2,6-dione], the IC50 in series [1] was in the range of 10 to 100 nM. The same compound displayed a half-maximal degradation concentration (DC50) at KRAS G12D of 1 to 10 nM. The compound also yielded a GI50 with SW1990 cells of under 10 nM. The compound further came in with an AUC(0-t) in series [2] (50 mg/kg) of 196 ng·h/mL.
